Each block holds one molecule with its values, some of them ahead of it.
Columns and labels:
Type in all cases: biochemical
[1] = target: T1, prohormone convertase 2 (PC2) (Mus musculus, UniProt P21661); experiment: fluorogenic enzyme assay with pERTKR-amc, IC50 and inhibition kinetics
T1 construct: gene Pcsk2; Recombinant PC2
T1 sequence (P21661 109-637): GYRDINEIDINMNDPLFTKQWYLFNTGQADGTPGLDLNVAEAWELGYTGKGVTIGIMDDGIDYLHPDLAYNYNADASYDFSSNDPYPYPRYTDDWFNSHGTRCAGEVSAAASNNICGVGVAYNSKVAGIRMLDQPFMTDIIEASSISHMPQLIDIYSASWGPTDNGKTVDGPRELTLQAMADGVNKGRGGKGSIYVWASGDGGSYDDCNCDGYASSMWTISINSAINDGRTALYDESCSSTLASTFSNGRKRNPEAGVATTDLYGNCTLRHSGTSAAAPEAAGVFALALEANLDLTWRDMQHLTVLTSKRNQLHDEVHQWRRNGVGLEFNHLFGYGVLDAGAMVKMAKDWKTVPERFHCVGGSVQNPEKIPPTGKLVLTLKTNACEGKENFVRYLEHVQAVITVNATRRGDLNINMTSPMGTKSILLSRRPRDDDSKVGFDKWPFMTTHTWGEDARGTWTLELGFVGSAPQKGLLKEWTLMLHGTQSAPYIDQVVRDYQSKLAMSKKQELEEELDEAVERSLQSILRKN

[2] = target: T1, prohormone convertase 2 (PC2); experiment: fluorogenic enzyme assay, stimulation of activity at […]; details: read-out: % inhibition at 50 μM (negative = stimulation)
[3] = target: T1, prohormone convertase 2 (PC2); experiment: fluorogenic enzyme assay with pERTKR-amc, […] inhibition at […] and […] at […]
[4] = target: T2, prohormone convertase 1/3 (PC1/3) (Mus musculus, UniProt P63239); experiment: enzyme assay, stimulation of activity at […]
T2 construct: gene Pcsk1
T2 sequence (P63239 111-753): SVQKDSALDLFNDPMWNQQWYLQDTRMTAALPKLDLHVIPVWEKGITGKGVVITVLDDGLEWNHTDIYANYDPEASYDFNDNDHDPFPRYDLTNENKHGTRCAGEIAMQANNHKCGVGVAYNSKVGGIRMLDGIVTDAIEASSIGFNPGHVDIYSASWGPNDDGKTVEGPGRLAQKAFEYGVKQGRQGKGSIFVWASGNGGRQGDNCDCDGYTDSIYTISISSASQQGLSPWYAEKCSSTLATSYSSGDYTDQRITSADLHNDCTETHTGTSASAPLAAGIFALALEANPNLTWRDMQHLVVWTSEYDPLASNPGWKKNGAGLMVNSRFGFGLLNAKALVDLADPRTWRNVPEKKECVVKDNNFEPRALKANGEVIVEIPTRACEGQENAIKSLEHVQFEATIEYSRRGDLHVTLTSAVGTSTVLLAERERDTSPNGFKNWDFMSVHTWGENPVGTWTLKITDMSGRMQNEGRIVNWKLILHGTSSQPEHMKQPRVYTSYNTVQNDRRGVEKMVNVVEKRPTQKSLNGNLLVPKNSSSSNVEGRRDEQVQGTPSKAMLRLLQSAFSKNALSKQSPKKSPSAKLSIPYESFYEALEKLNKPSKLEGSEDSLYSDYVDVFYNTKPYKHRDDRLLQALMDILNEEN

Ki [1]: 690 ± 80 nM
SMILES: OC[C@@H](O)[C@H](O)[C@H](O)[C@@H](O)[C@@H]1NCCS1 [RJC00847]

inhibition at 50 µM [2]: -60%
SMILES: NCCCN=c1ccc2c3c1c(O)c1c(O)ccc(=O)c1c3[nH]n2CCNCCO [JFD02062]

inhibition at 50 µM [3]: 71%
inhibition at 50 µM [4]: -41%
SMILES: CCOC(=O)C(=CN/N=c1/cc[nH]c2cc(Cl)ccc12)C(=O)OCC [BTB03195]

Source: publication PMC3579927, “Identification of a Small Molecule That Selectively Inhibits Mouse PC2 over Mouse PC1/3: A Computational and Experimental Study” (PLoS ONE, 2013)
